One compound from EP0297159A1, “[N-Acyl, 1,7-Di-Aline] calcitonins, method for their preparation, pharmaceutical compositions and use” (Armour Pharmaceutical Company, priority 1987, dated 1989) can be followed below.

Where a SMILES comes first, the peptide text is derived from it. The star is where a group is joined. Propionyl = CCC(=O)*

For this experiment, the system named is serum calcium concentration. Particulars: rat, in vivo, sc.

Description: Rats were divided into four groups of seven animals, and each group was assigned at random to a dose of standard or test solution. Low and high doses were chosen from the linear portion of the dose-response curve. For the salmon calcitonin standard, the values were 0.7 and 2.1 mcg. peptide/100 g. body weight (BW). This dose approximates 3 and 9 MU/100 g. BW. Peptides were given by subcutaneous injection (0.2 ml./100 g. BW) and blood was withdrawn 1 hour later for serum calcium determination. Sera are processed and analyzed within two hours of collection.

With `CCC(=O)N[C@@H](C)C(=O)N[C@@H](CO)C(=O)N[C@@H](CC(N)=O)C(=O)N[C@@H](CC(C)C)C(=O)N[C@@H](CO)C(=O)N[C@H](C(=O)N[C@@H](C)C(=O)N[C@H](C(=O)N[C@@H](CC(C)C)C(=O)NCC(=O)N[C@@H](CCCCN)C(=O)N[C@@H](CC(C)C)C(=O)N[C@@H](CO)C(=O)N[C@@H](CCC(N)=O)C(=O)N[C@@H](CCC(=O)O)C(=O)N[C@@H](CC(C)C)C(=O)N[C@@H](Cc1c[nH]cn1)C(=O)N[C@@H](CCCCN)C(=O)N[C@@H](CC(C)C)C(=O)N[C@@H](CCC(N)=O)C(=O)N[C@H](C(=O)N[C@@H](Cc1ccc(O)cc1)C(=O)N1CCC[C@H]1C(=O)N[C@@H](CCCNC(=N)N)C(=O)N[C@H](C(=O)N[C@@H](CC(N)=O)C(=O)N[C@H](C(=O)NCC(=O)N[C@@H](CO)C(=O)NCC(=O)N[C@H](C(=O)N1CCC[C@H]1C(N)=O)[C@@H](C)O)[C@@H](C)O)[C@@H](C)O)[C@@H](C)O)C(C)C)[C@@H](C)O` [[N^α-Propionyl-Di-Ala^1,7]SCT, [N^α-Propionyl, 1,7-Di-Alanine]salmon calcitonin] (Propionyl-ASNLSTAVLGKLSQELHKLQTYPRTNTGSGTP-NH2), the biological potency came out at 5450 IU/mg.
